Consider 24 compounds from patent US11053241B2, “TYK2 inhibitors and uses thereof” (Nimbus Lakshmi, Inc., priority 2018, dated 2021).

Broadly, the Kd is a measure of binding affinity in units of concentration.

Bounds are passed on as bounds.

Chain of human TYK2 (JH2domain-pseudokinase) (P29597 556-888): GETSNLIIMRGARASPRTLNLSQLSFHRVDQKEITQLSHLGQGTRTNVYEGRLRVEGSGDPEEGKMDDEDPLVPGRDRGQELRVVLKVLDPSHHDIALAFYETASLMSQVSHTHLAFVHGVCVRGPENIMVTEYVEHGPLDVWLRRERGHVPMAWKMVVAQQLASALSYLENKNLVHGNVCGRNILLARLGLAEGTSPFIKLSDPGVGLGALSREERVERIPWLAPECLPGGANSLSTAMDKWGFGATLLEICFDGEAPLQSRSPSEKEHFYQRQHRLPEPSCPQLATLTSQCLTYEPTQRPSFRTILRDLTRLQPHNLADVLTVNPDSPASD

The assay addresses human TYK2 (JH2domain-pseudokinase) (Homo sapiens (Human), UniProt P29597). Nature of the assay: TYK2 JH2 Domain Binding Assay (KINOMEscan). To be noted: 11-point 3-fold dilution, top concentration 30,000 nM, duplicate. The method, then:
Binding constants for compounds of the present invention against the JH2 domain were determined by the following protocol for a KINOMEscan® assay (DiscoveRx). A fusion protein of a partial length construct of human TYK2 (JH2domain-pseudokinase) (amino acids G556 to D888 based on reference sequence NP_003322.3) and the DNA binding domain of NFkB was expressed in transiently transfected HEK293 cells. From these HEK 293 cells, extracts were prepared in M-PER extraction buffer (Pierce) in the presence of Protease Inhibitor Cocktail Complete (Roche) and Phosphatase Inhibitor Cocktail Set II (Merck) per manufacturers' instructions. The TYK2(JH2domain-pseudokinase) fusion protein was labeled with a chimeric double-stranded DNA tag containing the NFkB binding site (5′-GGGAATTCCC-3′) fused to an amplicon for qPCR readout, which was added directly to the expression extract (the final concentration of DNA-tag in the binding reaction is 0.1 nM).
Streptavidin-coated magnetic beads (Dynal M280) were treated with a biotinylated small molecule ligand for 30 minutes at room temperature to generate affinity resins for the binding assays. The liganded beads were blocked with excess biotin and washed with blocking buffer (SeaBlock (Pierce), 1% BSA, 0.05% Tween 20, 1 mM DTT) to remove unbound ligand and to reduce nonspecific binding.
The binding reaction was assembled by combining 16 μl of DNA-tagged kinase extract, 3.8 μl liganded affinity beads, and 0.18 μl test compound (PBS/0.05% Tween 20/10 mM DTT/0.1% BSA/2 μg/ml sonicated salmon sperm DNA). Extracts were used directly in binding assays without any enzyme purification steps at a ≥10,000-fold overall stock dilution (final DNA-tagged enzyme concentration <0.1 nM). Extracts were loaded with DNA-tag and diluted into the binding reaction in a two step process. First extracts were diluted 1:100 in 1× binding buffer (PBS/0.05% Tween 20/10 mM DTT/0.1% BSA/2 μg/ml sonicated salmon sperm DNA) containing 10 nM DNA-tag. This dilution was allowed to equilibrate at room temperature for 15 minutes and then subsequently diluted 1:100 in 1× binding buffer. All reactions were performed in polypropylene 384-well plates. Each was a final volume of 0.02 mL. Assays were incubated with shaking for 1 hour at room temperature. Then the beads were pelleted and washed with wash buffer (1×PBS, 0.05% Tween 20) to remove displaced kinase and test compound. The washed based were re-suspended in elution buffer (1×PBS, 0.05% Tween 20, 0.5 μM non-biotinylated affinity ligand) and incubated at room temperature with shaking for 30 minutes. The kinase concentration in the eluates was measured by qPCR. qPCR reactions were assembled by adding 2.5 μL of kinase eluate to 7.5 μL of qPCR master mix containing 0.15 μM amplicon primers and 0.15 μM amplicon probe. The qPCR protocol consisted of a 10 minute hot start at 95° C., followed by 35 cycles of 95° C. for 15 seconds, 60° C. for 1 minute.
Test compounds were prepared as 111× stocks in 100% DMSO. Kd values were determined using an 11-point 3-fold compound dilution series with three DMSO control points. All compounds for Kd measurements are distributed by acoustic transfer (non-contact dispensing) in 100% DMSO. The compounds were then diluted directly into the assays such that the final concentration of DMSO was 0.9%. The Kd values were determined using a compound top concentration of 30,000 nM. Kd measurements were performed in duplicate.
Binding constants (Kds) were calculated with a standard dose-response curve using the Hill equation: […]
The Hill Slope was set to −1. Curves were fitted using a non-linear least square fit with the Levenberg-Marquardt algorithm (Levenberg, K., A method for the solution of certain non-linear problems in least squares, Q. Appl. Math. 2, 164-168 (1944)).
As for `CNC(=O)c1cnc(Nc2ccn(C)n2)c2[nH]c(-c3ccccc3)cc12` [Compound I-93, N-methyl-7-((1-methyl-1H-pyrazol-3-yl)amino)-2-phenyl-1H-pyrrolo[2,3-c]pyridine-4-carboxamide], the Kd lay in the range of 0.2 to 1 nM.
The value for `CNC(=O)c1cnc(NC(=O)C2CC2)c2[nH]c(-c3cccc([C@H]4C[C@@H](OC)C4)c3F)cc12` [Compound I-91, 7-(cyclopropanecarboxamido)-2-(2-fluoro-3-((1s,3s)-3-methoxycyclobutyl)phenyl)-N-methyl-1H-pyrrolo[2,3-c]pyridine-4-carboxamide] was < 0.2 nM.
`CNC(=O)c1cnc(NC(=O)C2CC2)c2[nH]c(-c3ncc(C(=O)N(C)C)cc3F)cc12` [Compound I-51, 7-(cyclopropanecarboxamido)-2-(5-(dimethylcarbamoyl)-3-fluoropyridin-2-yl)-N-methyl-1H-pyrrolo[2,3-c]pyridine-4-carboxamide] had a Kd of 0.2 to 1 nM.
With `CNC(=O)c1cnc(NC(=O)C2CC2)c2[nH]c(-c3cccc(-c4cn(C)c(C)n4)c3F)cc12` [Compound I-67] the figure was < 0.2 nM; with `CNC(=O)c1cnc(NC(=O)C2CC2)c2[nH]c(-c3ccccc3N3CCC(O)CC3)cc12` [Compound I-46, 7-(cyclopropanecarboxamido)-2-(2-(4-hydroxypiperidin-1-yl)phenyl)-N-methyl-1H-pyrrolo[2,3-c]pyridine-4-carboxamide], 0.2 to 1 nM; with `CNC(=O)c1cnc(NC(=O)C2CC2)c2[nH]c(-c3ccn(-c4cnn(C)c4)n3)cc12` [Compound I-80, 7-(cyclopropanecarboxamido)-N-methyl-2-(1′-methyl-1′H-[1,4′-bipyrazol]-3-yl)-1H-pyrrolo[2,3-c]pyridine-4-carboxamide], < 0.2 nM.
With `CNC(=O)c1cnc(Nc2ccn(C)n2)c2[nH]c(-c3cccc(-c4cnc(C)o4)c3F)cc12` [Compound I-99, 2-(2-fluoro-3-(2-methyloxazol-5-yl)phenyl)-N-methyl-7-((1-methyl-1H-pyrazol-3-yl)amino)-1H-pyrrolo[2,3-c]pyridine-4-carboxamide], the Kd is < 0.2 nM.
With `CNC(=O)c1cnc(Nc2ccn(C)n2)c2[nH]c(-c3cccc(-c4cn5c(n4)COCC5)c3F)cc12` [Compound I-100, 2-(3-(5,6-dihydro-8H-imidazo[2,1-c][1,4]oxazin-2-yl)-2-fluorophenyl)-N-methyl-7-((1-methyl-1H-pyrazol-3-yl)amino)-1H-pyrrolo[2,3-c]pyridine-4-carboxamide] the figure was < 0.2 nM; with `CNC(=O)c1cnc(NC(=O)C2CC2)c2[nH]c(-c3cccc(-c4nc(C)n(C)n4)c3F)cc12` [Compound I-73, 7-(cyclopropanecarboxamido)-2-(3-(1,5-dimethyl-1H-1,2,4-triazol-3-yl)-2-fluorophenyl)-N-methyl-1H-pyrrolo[2,3-c]pyridine-4-carboxamide], < 0.2 nM; with `CCOc1cc(-c2nccn2C)cc(F)c1-c1cc2c(C(=O)NC)cnc(NC(=O)C3CC3)c2[nH]1` [Compound I-78, 7-(cyclopropanecarboxamido)-2-(2-ethoxy-6-fluoro-4-(1-methyl-1H-imidazol-2-yl)phenyl)-N-methyl-1H-pyrrolo[2,3-c]pyridine-4-carboxamide], < 0.2 nM.
Regarding `CNC(=O)c1cnc(NC(=O)C2CC2)c2[nH]c(-c3ccc(-c4nccn4C)cc3F)cc12` [Compound I-58, 7-(cyclopropanecarboxamido)-2-(2-fluoro-4-(1-methyl-1H-imidazol-2-yl)phenyl)-N-methyl-11H-pyrrolo[2,3-c]pyridine-4-carboxamide], the Kd is < 0.2 nM.
With `CNC(=O)c1cnc(NC(=O)C2CC2)c2[nH]c(-c3ccc(OC)cc3[C@@H]3COCCO3)cc12` [Compound I-72] the figure was > 10 nM; with `CNC(=O)c1cnc(NC(=O)C2CC2)c2[nH]c(-c3ccc(-c4ncc5n4CCCC5)cc3F)cc12` [Compound I-75, 7-(cyclopropanecarboxamido)-2-(2-fluoro-4-(5,6,7,8-tetrahydroimidazo[1,5-a]pyridin-3-yl)phenyl)-N-methyl-1H-pyrrolo[2,3-c]pyridine-4-carboxamide], < 0.2 nM; with `CNC(=O)c1cnc(NC(=O)C2CC2)c2[nH]c(-c3ccc(-c4ccn(C)n4)cc3F)cc12` [Compound I-101], 0.2 to 1 nM.
With `CNC(=O)c1cnc(NC(=O)C2CC2)c2[nH]c(-c3ccc(-c4cnccn4)cc3F)cc12` [Compound I-66, 7-(cyclopropanecarboxamido)-2-(2-fluoro-4-(pyrazin-2-yl)phenyl)-N-methyl-1H-pyrrolo[2,3-c]pyridine-4-carboxamide] the figure was < 0.2 nM; with `CNC(=O)c1cnc(NC(=O)C2CC2)c2[nH]c(-c3cccc(-c4nc(C)cn4C)n3)cc12` [Compound I-49, 7-(cyclopropanecarboxamido)-2-(6-(1,4-dimethyl-1H-imidazol-2-yl)pyridin-2-yl)-N-methyl-1H-pyrrolo[2,3-c]pyridine-4-carboxamide], < 0.2 nM.
The value for `CNC(=O)c1cnc(NC(=O)C2CC2)c2[nH]c(-c3ccc(-n4ncnc4C)cc3F)cc12` [Compound I-65, 7-(cyclopropanecarboxamido)-2-(2-fluoro-4-(5-methyl-1H-1,2,4-triazol-1-yl)phenyl)-N-methyl-1H-pyrrolo[2,3-c]pyridine-4-carboxamide] was < 0.2 nM; that for `CNC(=O)c1cnc(NC(=O)C2CC2)c2[nH]c(-c3ccc(-c4nncn4C)cc3F)cc12` [Compound I-62, 7-(cyclopropanecarboxamido)-2-(2-fluoro-4-(4-methyl-4H-1,2,4-triazol-3-yl)phenyl)-N-methyl-1H-pyrrolo[2,3-c]pyridine-4-carboxamide] was < 0.2 nM; that for `CNC(=O)c1cnc(NC(=O)C2CC2)c2[nH]c(-c3cccc(-n4nccn4)c3F)cc12` [Compound I-63, 7-(cyclopropanecarboxamido)-2-(2-fluoro-3-(2H-1,2,3-triazol-2-yl)phenyl)-N-methyl-1H-pyrrolo[2,3-c]pyridine-4-carboxamide] was 0.2 to 1 nM.
For `CNC(=O)c1cnc(NC(=O)C2CC2)c2[nH]c(-c3ccc(-c4ncc(C)n4C)cc3F)cc12` [Compound I-68, 7-(cyclopropanecarboxamido)-2-(4-(1,5-dimethyl-1H-imidazol-2-yl)-2-fluorophenyl)-N-methyl-1H-pyrrolo[2,3-c]pyridine-4-carboxamide], the Kd was < 0.2 nM.
On to `CNC(=O)c1cnc(NC(=O)C2CC2)c2[nH]c(-c3ccc(-c4nc(C)c(C)n4C)cc3F)cc12` [Compound I-74, 7-(cyclopropanecarboxamido)-2-(2-fluoro-4-(1,4,5-trimethyl-1H-imidazol-2-yl)phenyl)-N-methyl-1H-pyrrolo[2,3-c]pyridine-4-carboxamide], for which the Kd is < 0.2 nM.
The value for `CNC(=O)c1cnc(NC(=O)C2CC2)c2[nH]c(-c3cccc([C@H]4C[C@H](OC)C4)c3F)cc12` [Compound I-94, 7-(cyclopropanecarboxamido)-2-(2-fluoro-3-((1r,3r)-3-methoxycyclobutyl)phenyl)-N-methyl-1H-pyrrolo[2,3-c]pyridine-4-carboxamide] was < 0.2 nM.
Compound `CNC(=O)c1cnc(NC(=O)C2CC2)c2[nH]c(-c3cccc(-c4cnn(C)c4)c3C#N)cc12` [Compound I-45, 2-(2-cyano-3-(1-methyl-1H-pyrazol-4-yl)phenyl)-7-(cyclopropane-carboxamido)-N-methyl-1H-pyrrolo[2,3-c]pyridine-4-carboxamide] gave a Kd of 0.2 to 1 nM.
With `CNC(=O)c1cnc(NC(=O)C2CC2)c2[nH]c(-c3cccc(C4CCCO4)c3F)cc12` (stereo not drawn) [Compound I-95, 7-(cyclopropanecarboxamido)-2-(2-fluoro-3-(tetrahydrofuran-2-yl)phenyl)-N-methyl-1H-pyrrolo[2,3-c]pyridine-4-carboxamide] the figure was < 0.2 nM.
